Data as given in ChEMBL document CHEMBL1152252, “Synthesis, biological evaluation, structural-activity relationship, and docking study for a series of benzoxepin-derived estrogen receptor modulators” (Bioorg Med Chem, 2008).
Calls of active or inactive are those of the source. No cut-off for these calls is given here.

Tests used:
MCF7 [1] = assay: Antiproliferative activity against estrogen receptor dependent human MCF7 cells after 72 hrs by MTT assay; assay type: functional, cell-based; conditions: MCF7, 72 h
MDA-MB-231 [2] = assay: Antiproliferative activity against hormone independent human MDA-MB-231 cells upto 100 nM after 72 hrs by MTT assay; assay type: functional, cell-based
MCF7 [3] = assay: Antiproliferative activity against estrogen receptor dependent human MCF7 cells at 10 uM after 72 hrs by LDH assay; assay type: functional
Estrogen receptor = biological target: T1, Estrogen receptor (Homo sapiens, UniProt P03372); assay: biochemical
T1 sequence (P03372 whole entry): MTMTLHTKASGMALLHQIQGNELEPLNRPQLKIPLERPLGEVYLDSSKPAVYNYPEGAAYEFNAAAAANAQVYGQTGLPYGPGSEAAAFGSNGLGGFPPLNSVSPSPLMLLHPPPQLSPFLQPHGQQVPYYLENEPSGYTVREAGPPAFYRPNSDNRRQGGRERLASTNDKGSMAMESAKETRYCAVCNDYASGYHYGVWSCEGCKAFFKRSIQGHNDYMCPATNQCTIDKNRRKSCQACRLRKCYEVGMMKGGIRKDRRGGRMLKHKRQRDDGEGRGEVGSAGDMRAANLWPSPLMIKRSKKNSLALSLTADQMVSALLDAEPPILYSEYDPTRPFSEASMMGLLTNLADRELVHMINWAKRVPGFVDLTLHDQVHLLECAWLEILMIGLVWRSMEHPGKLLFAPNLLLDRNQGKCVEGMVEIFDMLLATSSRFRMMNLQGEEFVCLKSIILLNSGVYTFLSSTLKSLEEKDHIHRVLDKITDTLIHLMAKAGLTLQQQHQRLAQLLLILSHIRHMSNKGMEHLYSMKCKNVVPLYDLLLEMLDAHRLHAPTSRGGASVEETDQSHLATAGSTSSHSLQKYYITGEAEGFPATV
Description: Displacement of fluorescein labeled estradiol from human recombinant ERalpha expressed in baculovirus infected insect cells by fluorescence polarization assay

Estrogen receptor beta = Estrogen receptor beta (Homo sapiens, UniProt Q92731); assay: biochemical
Estrogen receptor beta, sequence (Q92731 whole entry): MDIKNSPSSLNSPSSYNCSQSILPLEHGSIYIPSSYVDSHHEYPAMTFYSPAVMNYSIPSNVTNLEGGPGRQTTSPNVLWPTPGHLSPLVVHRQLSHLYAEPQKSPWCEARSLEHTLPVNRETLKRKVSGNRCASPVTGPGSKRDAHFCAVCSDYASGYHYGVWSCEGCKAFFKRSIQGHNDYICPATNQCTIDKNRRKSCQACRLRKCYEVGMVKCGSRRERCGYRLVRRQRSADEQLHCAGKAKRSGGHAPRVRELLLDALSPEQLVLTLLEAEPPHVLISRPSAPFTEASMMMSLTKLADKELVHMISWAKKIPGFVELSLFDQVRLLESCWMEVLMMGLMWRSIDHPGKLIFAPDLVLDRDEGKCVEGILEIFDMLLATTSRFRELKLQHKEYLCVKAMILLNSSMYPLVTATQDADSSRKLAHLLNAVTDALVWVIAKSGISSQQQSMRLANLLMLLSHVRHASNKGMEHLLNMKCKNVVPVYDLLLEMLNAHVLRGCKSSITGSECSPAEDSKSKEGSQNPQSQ
Description: Displacement of fluorescein labeled estradiol from human recombinant ERbeta expressed in baculovirus infected insect cells by fluorescence polarization assay

MDA-MB-231 [4] = assay: Antiproliferative activity against hormone independent human MDA-MB-231 cells after 72 hrs by MTT assay; assay type: functional, cell-based; conditions: MDA-MB-231, 72 h
Ishikawa [5] = assay: Antiestrogenic activity in human Ishikawa cells assessed as inhibition of estrogen-induced alkaline phosphatase activity after 72 hrs; assay type: functional, cell-based
Ishikawa [6] = assay: Estrogenic stimulatory activity in human Ishikawa cells assessed as alkaline phosphatase activity at 1 uM after 72 hrs in absence of estradiol; assay type: functional

Compound | IC50 (MCF7 [1]) [nM] | Activity (MDA-MB-231 [2]) | Activity (MCF7 [3]) [%] | IC50 (Estrogen receptor) [nM] | IC50 (Estrogen receptor beta) [nM] | IC50 (MDA-MB-231 [4]) [nM] | IC50 (Ishikawa [5]) [nM] | Activity (Ishikawa [6]) [%]
CN(C)CCOc1ccc(C2=C(c3cccs3)CCOc3ccccc32)cc1 | 16700 | inactive | – | – | – | – | – | –
COc1ccc2c(c1)OCCC=C2c1ccc(O)cc1 | – | – | 17 | – | – | – | – | –
CS(=O)(=O)c1ccc(C2=C(c3ccc(OCCN4CCCC4)cc3)c3ccc(F)cc3OCC2)cc1 | 4560 | inactive | – | > 15000 | > 15000 | – | – | –
Fc1ccc(C2=C(c3ccc(OCCN4CCCC4)cc3)c3ccc(F)cc3OCC2)cc1 | 450 | inactive | – | 126 | 262 | – | – | –
Oc1ccc(C2=C(c3ccc(OCCN4CCCC4)cc3)c3ccc(O)cc3OCC2)cc1 | 11.9 | inactive | 11 | 8.4 | 2.9 | 2600 | 20.8 | 6
c1ccc(C2=C(c3ccc(OCCN4CCCC4)cc3)c3ccccc3OCC2)cc1 | 1580 | inactive | 8 | – | – | – | – | –
CC/C(=C(\c1ccccc1)c1ccc(OCCN(C)C)cc1)c1ccccc1 [TAMOXIFEN] | 4120 | inactive | – | – | – | – | – | 16.5
Oc1ccc(C2=C(c3ccc(OCCN4CCCCC4)cc3)c3ccc(F)cc3OCC2)cc1 | 156 | inactive | – | 6.5 | 8.78 | – | – | –
COc1ccc2c(c1)OCCC(c1ccc(O)cc1)=C2c1ccc(OCCN2CCCCC2)cc1 | 1540 | inactive | – | – | – | – | – | –
Oc1ccc(C2=C(c3ccc(OCCN4CCCC4)cc3)c3ccc(F)cc3OCC2)cc1 | 21.4 | inactive | – | 10.4 | 0.7 | 6750 | 194 | 9.7
Oc1ccc(C2=CCCOc3ccccc32)cc1 | – | – | 17 | – | – | – | – | –
Fc1ccc2c(c1)OCCC(c1ccccc1)=C2c1ccc(OCCN2CCCC2)cc1 | 1870 | inactive | – | 16.2 | 31 | – | – | –
CCC(=C(c1ccc(O)cc1)c1ccc(OCCN(C)C)cc1)c1ccccc1 | 107 | inactive | – | – | – | – | – | –
Oc1cccc(C2=C(c3ccc(OCCN4CCCC4)cc3)c3ccc(F)cc3OCC2)c1 | 359 | inactive | – | 14 | 6 | – | – | –
Oc1ccc(C2=C(c3ccc(OCCN4CCCC4)cc3)CCOc3cc(F)ccc32)cc1 | 6500 | inactive | – | 5.57 | 17.3 | – | 216 | 23
